Source: PubChem BioAssay (NCI)
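Step 1: Grow cells in 96-well plates. Step 2: Expose to compound for 48 hours at 5 concentrations. Step 3: Interpolate endpoints linearly; if unreached, use highest concentration. At the TGI there is no net growth.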

Experiments:
Test in all cases: NCI tumour cell line growth inhibition, 48 h
[1] = tested on: SF-268 CNS
[2] = tested on: M19-MEL melanoma
[3] = tested on: OVCAR-5 ovarian
[4] = tested on: HOP-92 NSCLC
[5] = tested on: DMS 114 small cell lung
[6] = tested on: OVCAR-3 ovarian
[7] = tested on: HCC-2998 colon
[8] = tested on: SW-620 colon
[9] = tested on: OVCAR-4 ovarian
[10] = tested on: COLO 205 colon
[11] = tested on: SF-295 CNS
[12] = tested on: NCI-H23 lung
[13] = tested on: SNB-19 CNS
[14] = tested on: K-562 leukemia
[15] = tested on: SK-MEL-2 melanoma
[16] = tested on: SNB-78 CNS
[17] = tested on: NCI-H522 lung
[18] = tested on: U251 CNS
[19] = tested on: MALME-3M melanoma
[20] = tested on: UO-31 renal
[21] = tested on: EKVX NSCLC
[22] = tested on: CCRF-CEM leukemia
[23] = tested on: NCI-H460 lung
[24] = tested on: SR leukemia
[25] = tested on: ACHN renal
[26] = tested on: HOP-62 NSCLC
[27] = tested on: SNB-75 CNS
[28] = tested on: SK-OV-3 ovarian
[29] = tested on: TK-10 renal
[30] = tested on: KM12 colon
[31] = tested on: MOLT-4 leukemia
[32] = tested on: HT29 colon
[33] = tested on: XF 498 CNS
[34] = tested on: SK-MEL-5 melanoma
[35] = tested on: KM20L2 colon
[36] = tested on: DMS 273 small cell lung
[37] = tested on: UACC-62 melanoma
[38] = tested on: HCT-116 colon
[39] = tested on: RPMI-8226 leukemia
[40] = tested on: RXF 393 renal
[41] = tested on: HL-60(TB) leukemia
[42] = tested on: UACC-257 melanoma
[43] = tested on: LOX IMVI melanoma
[44] = tested on: IGROV1 ovarian
[45] = tested on: LXFL 529 NSCLC
[46] = tested on: OVCAR-8 ovarian
[47] = tested on: SF-539 CNS
[48] = tested on: SN12C renal
[49] = tested on: CAKI-1 renal
[50] = tested on: A549 NSCLC
[51] = tested on: HCT-15 colon
[52] = tested on: DLD-1 colon
[53] = tested on: 786-0 renal
[54] = tested on: M14 melanoma
[55] = tested on: A498 renal

`N#CCCN(CCC#N)C(=O)c1cccc(C(=O)N(CCC#N)CCC#N)c1` was tested, and the TGI [1] was greater than 100 µM, the TGI [2] was greater than 100 µM and the TGI [3] was greater than 100 µM. It also gave a TGI [4] greater than 100 µM, a TGI [5] greater than 100 µM and a TGI [6] greater than 100 µM. The TGI [7] was greater than 100 µM, the TGI [8] was 26.5 µM and the TGI [9] was greater than 100 µM. For the same molecule, the TGI [10] was greater than 100 µM, the TGI [11] was greater than 100 µM and the TGI [12] was greater than 56 µM. For the same molecule, the TGI [13] was greater than 100 µM, the TGI [14] was greater than 100 µM and the TGI [15] was greater than 100 µM. The TGI [16] was greater than 100 µM, the TGI [17] was greater than 100 µM and the TGI [18] was greater than 59.4 µM. It also gave a TGI [19] greater than 100 µM, a TGI [20] greater than 100 µM and a TGI [21] greater than 63.9 µM. It also gave a TGI [22] greater than 100 µM, a TGI [23] greater than 64.8 µM and a TGI [24] greater than 68.4 µM. It also gave a TGI [25] greater than 100 µM, a TGI [26] greater than 100 µM and a TGI [27] greater than 59.3 µM. The TGI [28] was greater than 100 µM, the TGI [29] was greater than 100 µM and the TGI [30] was greater than 100 µM. For the same molecule, the TGI [31] was greater than 100 µM, the TGI [32] was 35.2 µM and the TGI [33] was greater than 100 µM. It also gave a TGI [34] greater than 100 µM, a TGI [35] greater than 63.8 µM and a TGI [36] greater than 100 µM. For the same molecule, the TGI [37] was greater than 61.2 µM, the TGI [38] was 99.4 µM and the TGI [39] was greater than 85.1 µM. The TGI [40] was 9.76 µM, the TGI [41] was greater than 73.3 µM and the TGI [42] was greater than 100 µM. For the same molecule, the TGI [43] was 30.3 µM, the TGI [44] was greater than 100 µM and the TGI [45] was 19.2 µM. The TGI [46] was greater than 69.1 µM, the TGI [47] was greater than 55.3 µM and the TGI [48] was greater than 58.3 µM. For the same molecule, the TGI [49] was greater than 100 µM, the TGI [50] was greater than 100 µM and the TGI [51] was greater than 100 µM. It also gave a TGI [52] greater than 100 µM, a TGI [53] greater than 100 µM and a TGI [54] greater than 100 µM. The TGI [55] was greater than 100 µM.
